The results in this text go back to PubChem BioAssay AID1259407 (Chemical Carcinogenesis Research Information System (CCRIS), 2018).

The test system of this data set is CCRIS mutagenicity, Ames/micronucleus/aberration tests. Briefly: CCRIS mutagenicity studies.
The mark [1] stands for this setting: Test System: AMES SALMONELLA TYPHIMURIUM, Strain/Indicator: TA98, Metabolic Activation: NONE, Method: STANDARD PLATE.
Where [2] appears, read: Test System: AMES SALMONELLA TYPHIMURIUM, Strain/Indicator: TA98, Metabolic Activation: RAT, LIVER, S-9, AROCLOR 1254, Method: STANDARD PLATE.
Where [3] appears, read: Test System: AMES SALMONELLA TYPHIMURIUM, Strain/Indicator: TA100, Metabolic Activation: NONE, Method: STANDARD PLATE.
[4] abbreviates: Test System: AMES SALMONELLA TYPHIMURIUM, Strain/Indicator: TA100, Metabolic Activation: RAT, LIVER, S-9, AROCLOR 1254, Method: STANDARD PLATE.
The mark [5] stands for this setting: Test System: AMES SALMONELLA TYPHIMURIUM, Strain/Indicator: TA1537, Metabolic Activation: NONE, Method: STANDARD PLATE.
Where [6] appears, read: Test System: AMES SALMONELLA TYPHIMURIUM, Strain/Indicator: TA1537, Metabolic Activation: RAT, LIVER, S-9, AROCLOR 1254, Method: STANDARD PLATE.
[7] abbreviates: Test System: AMES SALMONELLA TYPHIMURIUM, Strain/Indicator: TA1538, Metabolic Activation: RAT, LIVER, S-9, AROCLOR 1254, Method: STANDARD PLATE.
The mark [8] stands for this setting: Test System: AMES SALMONELLA TYPHIMURIUM, Strain/Indicator: TA98, Metabolic Activation: NONE, Method: PREINCUBATION
Where [9] appears, read: Test System: AMES SALMONELLA TYPHIMURIUM, Strain/Indicator: TA100, Metabolic Activation: NONE, Method: PREINCUBATION
[10] abbreviates: Test System: AMES SALMONELLA TYPHIMURIUM, Strain/Indicator: TA100, Metabolic Activation: RAT, LIVER, S-9, AROCLOR 1254, Method: PREINCUBATION
Setting [11] is: Test System: AMES SALMONELLA TYPHIMURIUM, Strain/Indicator: TA102, Metabolic Activation: NONE, Method: PREINCUBATION

The source made the active and inactive calls. No rule for the calls is given here.

For the molecule `C#C[C@]1(O)CC[C@H]2[C@@H]3CCC4=C(CCC(=O)C4)[C@H]3CC[C@@]21C`, the mutagenic call reads like this: (End Point: IN VITRO CHROMOSOMAL ABERRATIONS, Test System: HUMAN PERIPHERAL LYMPHOCYTES, Metabolic Activation: NONE) “inactive; negative”; (End Point: IN VITRO CHROMOSOMAL ABERRATIONS, Test System: HUMAN PERIPHERAL LYMPHOCYTES, Metabolic Activation: RAT, LIVER, S-9, PHENOBARBITONE) “active; positive (structural changes)”; (Test System: AMES SALMONELLA TYPHIMURIUM, Strain/Indicator: TA98, Metabolic Activation: MOUSE, LIVER, S-9, Method: STANDARD PLATE) “inactive; negative”; under setting [1], “inactive; negative”; under setting [2], “inactive; negative”; (Test System: AMES SALMONELLA TYPHIMURIUM, Strain/Indicator: TA100, Metabolic Activation: MOUSE, LIVER, S-9, Method: STANDARD PLATE) “inactive; negative”. Also, the mutagenic call was “inactive; negative” under setting [3]; “inactive; negative” under setting [4]; “inactive; negative” (Test System: AMES SALMONELLA TYPHIMURIUM, Strain/Indicator: TA1535, Metabolic Activation: MOUSE, LIVER, S-9, Method: STANDARD PLATE); “inactive; negative” (Test System: AMES SALMONELLA TYPHIMURIUM, Strain/Indicator: TA1535, Metabolic Activation: NONE, Method: STANDARD PLATE); “inactive; negative” (Test System: AMES SALMONELLA TYPHIMURIUM, Strain/Indicator: TA1535, Metabolic Activation: RAT, LIVER, S-9, AROCLOR 1254, Method: STANDARD PLATE); “inactive; negative” (Test System: AMES SALMONELLA TYPHIMURIUM, Strain/Indicator: TA1537, Metabolic Activation: MOUSE, LIVER, S-9, Method: STANDARD PLATE). Moreover, the mutagenic call is “inactive; negative” under setting [5]; “inactive; negative” under setting [6]; “inactive; negative” (Test System: AMES SALMONELLA TYPHIMURIUM, Strain/Indicator: TA1538, Metabolic Activation: MOUSE, LIVER, S-9, Method: STANDARD PLATE); “inactive; negative” (Test System: AMES SALMONELLA TYPHIMURIUM, Strain/Indicator: TA1538, Metabolic Activation: NONE, Method: STANDARD PLATE); “inactive; negative” under setting [7].

Consider `CC1CCOB(OCCC(C)OB2OCCC(C)O2)O1` (configuration not stated), for which the mutagenic call by setting is: (Test System: MOUSE LYMPHOMA, Strain/Indicator: L5178Y (TK+/TK-), Metabolic Activation: NONE, Method: SUSPENSION/PLATE) “inactive; negative. reevaluation of results: negative”; (Test System: MOUSE LYMPHOMA, Strain/Indicator: L5178Y (TK+/TK-), Metabolic Activation: RAT, LIVER, S-9, AROCLOR 1254, Method: SUSPENSION/PLATE) “inactive; negative. reevaluation of results: negative”.

For `O=[N+]([O-])c1ccc(-c2nc(N(CCO)CCO)c3ccccc3n2)s1`, the mutagenic call under setting [1] is “active; positive” and the mutagenic call under setting [3] was “active; positive”.

Regarding `C=CCN1CCC=C2c3nc(NC(C)=O)sc3CCC21` (configuration not stated), under setting [7], the mutagenic call is “inactive; negative”.

With `Cc1ccc(C=O)o1`, the mutagenic call was “inactive; negative” under setting [8]; “inactive; negative” under setting [1]; “inactive; negative” (Test System: AMES SALMONELLA TYPHIMURIUM, Strain/Indicator: TA98, Metabolic Activation: RAT, LIVER, S-9, AROCLOR 1254, Method: PREINCUBATION); “inactive; negative” (Test System: AMES SALMONELLA TYPHIMURIUM, Strain/Indicator: TA98, Metabolic Activation: S-9, Method: STANDARD PLATE); “inactive; negative” under setting [9]; “inactive; negative” under setting [3]. Besides, the mutagenic call under setting [10] was “inactive; negative”; the mutagenic call (Test System: AMES SALMONELLA TYPHIMURIUM, Strain/Indicator: TA100, Metabolic Activation: S-9, Method: STANDARD PLATE) is “inactive; negative”; the mutagenic call under setting [11] was “inactive; negative”; the mutagenic call (Test System: AMES SALMONELLA TYPHIMURIUM, Strain/Indicator: TA102, Metabolic Activation: RAT, LIVER, S-9, AROCLOR 1254, Method: PREINCUBATION) is “inactive; negative”.

In the case of `CCOc1cccc([N+](=O)[O-])c1`, the mutagenic call under setting [8] is “inactive; negative”; the mutagenic call (Test System: AMES SALMONELLA TYPHIMURIUM, Strain/Indicator: TA98, Method: PREINCUBATION) is “inactive; negative”; the mutagenic call under setting [9] was “inactive; negative”; the mutagenic call (Test System: AMES SALMONELLA TYPHIMURIUM, Strain/Indicator: TA100, Method: PREINCUBATION) is “inactive; negative”; the mutagenic call (Test System: AMES SALMONELLA TYPHIMURIUM, Strain/Indicator: TA1535, Metabolic Activation: NONE, Method: PREINCUBATION) was “inactive; negative”; the mutagenic call (Test System: AMES SALMONELLA TYPHIMURIUM, Strain/Indicator: TA1535, Method: PREINCUBATION) was “inactive; negative”. The mutagenic call was “inactive; negative” (Test System: AMES SALMONELLA TYPHIMURIUM, Strain/Indicator: TA1537, Metabolic Activation: NONE, Method: PREINCUBATION); “inactive; negative” (Test System: AMES SALMONELLA TYPHIMURIUM, Strain/Indicator: TA1537, Method: PREINCUBATION); “inactive; negative” (Test System: AMES SALMONELLA TYPHIMURIUM, Strain/Indicator: TA1538, Metabolic Activation: NONE, Method: PREINCUBATION); “inactive; negative” (Test System: AMES SALMONELLA TYPHIMURIUM, Strain/Indicator: TA1538, Method: PREINCUBATION).

For the molecule `O=NN(CCO)CC(=O)O`, the mutagenic call under setting [9] is “active; positive”.

For the molecule `COc1cc(N=Nc2c(Br)cc([N+](=O)[O-])cc2[N+](=O)[O-])c(NC(C)=O)cc1N(CCOC(C)=O)CCOC(C)=O`, the mutagenic call (End Point: IN VITRO CHROMOSOMAL ABERRATIONS, Test System: CHL CELLS, Metabolic Activation: NONE) was “active; positive (structural changes)”.

`CCCC[N+](=O)[O-]`: the mutagenic call under setting [8] was “inactive; negative”; the mutagenic call (Test System: AMES SALMONELLA TYPHIMURIUM, Strain/Indicator: TA98, Metabolic Activation: RAT, LIVER, S-9, AROCLOR, Method: PREINCUBATION) was “inactive; negative”; the mutagenic call (Test System: AMES SALMONELLA TYPHIMURIUM, Strain/Indicator: TA98, Metabolic Activation: RAT, LIVER, S-9, KANECHLOR 500, Method: PREINCUBATION) is “inactive; negative”; the mutagenic call under setting [9] is “inactive; negative”; the mutagenic call (Test System: AMES SALMONELLA TYPHIMURIUM, Strain/Indicator: TA100, Metabolic Activation: RAT, LIVER, S-9, AROCLOR, Method: PREINCUBATION) is “inactive; negative”; the mutagenic call (Test System: AMES SALMONELLA TYPHIMURIUM, Strain/Indicator: TA100, Metabolic Activation: RAT, LIVER, S-9, KANECHLOR 500, Method: PREINCUBATION) was “inactive; negative”. The mutagenic call under setting [11] is “inactive; negative”; the mutagenic call (Test System: AMES SALMONELLA TYPHIMURIUM, Strain/Indicator: TA102, Metabolic Activation: RAT, LIVER, S-9, AROCLOR, Method: PREINCUBATION) is “inactive; negative”; the mutagenic call (Test System: E. COLI, Strain/Indicator: WP2 UVRA (PKM101), Metabolic Activation: NONE, Method: PREINCUBATION) was “inactive; negative”; the mutagenic call (Test System: E. COLI, Strain/Indicator: WP2 UVRA (PKM101), Metabolic Activation: RAT, LIVER, S-9, KANECHLOR 500, Method: PREINCUBATION) is “inactive; negative”; the mutagenic call (Test System: UDS RAT HEPATOCYTES, Strain/Indicator: THY INCORP, Metabolic Activation: NONE) was “inactive; negative”.

Turning to `Cc1cc(O)c2c(c1)C(=O)c1c(c(O)cc(O)c1-c1c(O)cc(O)c3c1C(=O)c1cc(C)cc(O)c1C3=O)C2=O`, the mutagenic call is “inactive; negative” under setting [1]; “inactive; negative” under setting [2]; “inactive; negative” under setting [3]; “inactive; negative” under setting [4]; “inactive; negative” under setting [5]; “inactive; negative” under setting [6].

As for `Oc1cccc2cc3c4ccccc4c4ccccc4c3cc12`, under setting [10], the mutagenic call is “active; positive”.
